Results taken from patent US20260191841A1, “TREATMENT OF CHRONIC KIDNEY DISEASE IN TYPE I DIABETES MELLITUS” (BAYER AKTIENGESELLSCHAFT, priority 2022, published 2026).

Experiments:
[1] = patients with CKD and T1D; vs placebo; cited from earlier work
[2] = patients with T2D; coadministered with an ACEI or an ARB; cited from earlier work
[3] = FIDELITY UACR mixed model, restricted to patients with UACR>=200 mg/g and eGFR between 25 and 90 ml/min/1.73 m^2; format: in vivo, human; conditions: FIDELITY restricted population
Method: UACR will be analyzed assuming a lognormal distribution. Assumptions for the UACR ratios to baseline at 6 months are based on the FIDELITY UACR mixed model restricted to patients with UACR>=200 mg/g and eGFR between 25 and 90 ml/min/1.73 m^2.
In the FIDELITY restricted population, the UACR ratio to baseline after 4 months was 0.61 and 0.53 after 12 months in the finerenone group. The value, using interpolation, at 6 months was estimated to be 0.59. As a conservative approach, we will assume the treatment ratio (finerenone/placebo) over 6 months to be 0.7 (i.e., the difference in UACR ratio to baseline between finerenone and placebo to be 30%). The standard deviation was calculated to range from 0.75 and 1.0 between month 4 and 12. Using linear interpolation, at month 6 it was assumed to be approximately 0.8.

Compound: Oc1ncnc2[nH]ncc12 [allopurinol]
- albuminuria [1]: did not reduce albuminuria
- rate of kidney function decline [1]: nor delay the rate of kidney function decline

Compound: CCOc1ncc(C)c2c1[C@H](c1ccc(C#N)cc1OC)C(C(N)=O)=C(C)N2 [finerenone, (4S)-4-(4-cyano-2-methoxyphenyl)-5-ethoxy-2,8-dimethyl-1,4-dihydro-1,6-naphthyridine-3-carboxamide]
- cardiovascular morbidity [2]: reduces cardiovascular morbidity
- progression of diabetic kidney disease [2]: delays the progression of diabetic kidney disease
- UACR ratio to baseline ([3]; after 4 months, finerenone group): 0.61
- UACR ratio to baseline ([3]; after 12 months, finerenone group): 0.53
- UACR ratio to baseline ([3]; at 6 months, estimated using interpolation): 0.59
